Assay [1] has as its system HCV RNA replication (HCV type 1b replicon in Huh-7 luc/neo cells). Briefly: HCV replicon assay (Huh-Luc, luciferase read-out). As to conditions: Hepatitis C virus, Huh-7, 72 h, HCV replicon test, three days incubation. It counts as cell-based. The source says: The EC50 ratio between the active ingredients of formula I, II and III in the combinations of the invention may vary. As used herein the term “EC50 ratio” refers to the ratio of the EC50 value of the compound of formula I to the EC50 value of the compound of formula II, and to the EC50 value of the compound of formula III, said EC50 values being obtained in the HCV replicon test. The latter in particular is the test method described hereinafter.
The in vitro antiviral activity against HCV of the compound of formula I or of formula II or of formula III can be tested in a cellular HCV replicon system based on Lohmann et al. (1999) Science 285:110-113, with the further modifications described by Krieger et al. (2001) Journal of Virology 75: 4614-4624 (incorporated herein by reference), which is further exemplified in the examples section. […]
The replicon cells were plated in 384 well plates in the presence of the test and control compounds which were added in various concentrations. Following an incubation of three days, HCV replication was measured by assaying luciferase activity (using standard luciferase assay substrates and reagents, and a Perkin Elmer ViewLux™ ultraHTS microplate imager). […] The inhibitory activity of the compound was monitored on the Huh-Luc cells, enabling a dose-response curve for each test compound. […]
In general terms: In antiviral work, replicon cells carry a viral genome segment that copies itself.

Assay [2] has the same test system. As to conditions: HCV replicon test; reported in WO2010/003658; cited from earlier work.

Where two headings read alike, the source gives them in different places.

`COc1ccc2c(O[C@@H]3C[C@H]4C(=O)N[C@]5(C(=O)NS(=O)(=O)C6CC6)C[C@H]5C=CCCCCN(C)C(=O)[C@@H]4C3)cc(-c3nc(C(C)C)cs3)nc2c1C` (stereo in doubt) [compound I, (1R,4R,6S,15R,17R)-cis-N-[17-[2-(4-isopropylthiazole-2-yl)-7-methoxy-8-methyl-quinolin-4-yloxy]-13-methyl-2,14-dioxo-3,13-diazatricyclo[13.3.0.0^4,6]octadec-7-ene-4-carbonyl](cyclopropyl)sulfonamide]: the EC50 in assay [1] was determined as 8 nM.
The same measure, in the same setting: under `C[C@@H]1[C@H](n2ccc(N)nc2=O)O[C@@](CO)(N=[N+]=[N-])[C@H]1O` [compound II, 4-amino-1-((2R,3S,4S,5R)-5-azido-4-hydroxy-5-hydroxymethyl-3-methyl-tetrahydrofuran-2-yl)-1H-pyrimidin-2-one] stands 5000 nM.
For the compound `COc1ccc2c(c1)C=C1Cn3c-2c(C2CCCCC2)c2ccc(cc23)C(=O)NS(=O)(=O)N(C)CCOCCN(C)C1=O` [compound III], the EC50 in assay [2] is 70 nM.

The EC50 is the concentration giving half of the maximal effect.

The values above are taken from US20130028865A1, “Combination of a Macrocyclic Inhibitor of HCV, A Non-Nucleoside and a Nucleoside” (MEDIVIR AB, priority 2010, published 2013).
